From ChEMBL document CHEMBL1150798, “Combined therapies in a murine model of blastoschizomycosis” (2007)
Values after ≈ are worked out from the molar mass of the structure shown. Starred links: 1 amine or outer side, 2 acyl side, 3 side chain; linkers in the order of their positions; H or OH if unused. Positions of bridges follow the written chain, without caps; N, C: chain ends. Non-standard residues stand in square brackets, D forms with d. Residues, ends and D or L forms follow the SMILES beside them. *: point of attachment. hTyr(3S-OH,4S-OH,3'-OSO3H) = N[C@H](C(=O)O)[C@H](O)[C@@H](O)c1ccc(O)c(OS(=O)(=O)O)c1; Orn(4R-OH,5R-OH) = O=C([C@H](C[C@@H](O)[C@@H](O)N[*:3])N[*:1])[*:2]; Pro(3S-OH,4S-Me) = C[C@H]1CN[C@H](C(=O)O)[C@H]1O; X1 = CCCCCOc1ccc(-c2cc(-c3ccc(C(=O)*)cc3)no2)cc1; Gln(3R-OH) = NC(=O)C[C@@H](O)[C@H](N)C(=O)O; Hyp = O=C(O)[C@@H]1C[C@@H](O)CN1

Key:
Type in all cases: functional
Magnusiomyces capitatus [1] = assay: Antimicrobial activity against Blastoschizomyces capitatus IHEM 5666 isolate infected OF1 mouse blastoschizomycosis model assessed as mean survival time at 1 mg/kg/day, ip for 6 days administered 1 hr before microbial challenge; conditions: route intraperitoneal
Magnusiomyces capitatus [2] = assay: Antimicrobial activity against Blastoschizomyces capitatus IHEM 16105 isolate infected OF1 mouse blastoschizomycosis model assessed as spleen microbial count per gram of tissue at 1 mg/kg/day, ip for 6 days administered 1 hr before microbial challenge; conditions: route intraperitoneal
Magnusiomyces capitatus [3] = assay: Antimicrobial activity against Blastoschizomyces capitatus IHEM 16105 isolate infected OF1 mouse blastoschizomycosis model assessed as liver microbial count per gram of tissue at 1 mg/kg/day, ip for 6 days administered 1 hr before microbial challenge; conditions: route intraperitoneal
Magnusiomyces capitatus [4] = assay: Antimicrobial activity against Blastoschizomyces capitatus IHEM 16105 isolate infected OF1 mouse blastoschizomycosis model assessed as kidney microbial count per gram of tissue at 1 mg/kg/day, ip for 6 days administered 1 hr before microbial challenge; conditions: route intraperitoneal
Magnusiomyces capitatus [5] = assay: Antimicrobial activity against Blastoschizomyces capitatus IHEM 5666 isolate infected OF1 mouse blastoschizomycosis model assessed as liver microbial count at 1 mg/kg/day, ip for 6 days administered 1 hr before microbial challenge; conditions: route intraperitoneal
Magnusiomyces capitatus [6] = assay: Antimicrobial activity against Blastoschizomyces capitatus IHEM 5666 isolate by microdilution method
Magnusiomyces capitatus [7] = assay: Antimicrobial activity against Blastoschizomyces capitatus IHEM 16105 isolate infected OF1 mouse blastoschizomycosis model assessed as mean survival time at 1 mg/kg/day, ip for 6 days administered 1 hr before microbial challenge; conditions: route intraperitoneal
Magnusiomyces capitatus [8] = assay: Antimicrobial activity against Blastoschizomyces capitatus IHEM 5666 isolate infected OF1 mouse blastoschizomycosis model assessed as kidney microbial count at 1 mg/kg/day, ip for 6 days administered 1 hr before microbial challenge; conditions: route intraperitoneal
Magnusiomyces capitatus [9] = assay: Antimicrobial activity against Blastoschizomyces capitatus IHEM 5666 isolate infected OF1 mouse blastoschizomycosis model assessed as spleen microbial count at 1 mg/kg/day, ip for 6 days administered 1 hr before microbial challenge; conditions: route intraperitoneal
Magnusiomyces capitatus [10] = assay: Antimicrobial activity against Blastoschizomyces capitatus IHEM 16105 isolate infected OF1 mouse blastoschizomycosis model assessed as kidney microbial count per gram of tissue at 80 mg/kg/day, po for 6 days administered 1 hr before microbial challenge
Magnusiomyces capitatus [11] = assay: Antimicrobial activity against Blastoschizomyces capitatus IHEM 5666 isolate infected OF1 mouse blastoschizomycosis model assessed as spleen microbial count per gram of tissue at 80 mg/kg/day, po for 6 days administered 1 hr before microbial challenge
Magnusiomyces capitatus [12] = assay: Antimicrobial activity against Blastoschizomyces capitatus IHEM 16105 isolate infected OF1 mouse blastoschizomycosis model assessed as spleen microbial count per gram of tissue at 80 mg/kg/day, po for 6 days administered 1 hr before microbial challenge
Magnusiomyces capitatus [13] = assay: Antimicrobial activity against Blastoschizomyces capitatus IHEM 5666 isolate infected OF1 mouse blastoschizomycosis model assessed as kidney microbial count per gram of tissue at 80 mg/kg/day, po for 6 days administered 1 hr before microbial challenge
Magnusiomyces capitatus [14] = assay: Antimicrobial activity against Blastoschizomyces capitatus IHEM 5666 isolate infected OF1 mouse blastoschizomycosis model assessed as liver microbial count per gram of tissue at 80 mg/kg/day, po for 6 days administered 1 hr before microbial challenge
Magnusiomyces capitatus [15] = assay: Antimicrobial activity against Blastoschizomyces capitatus IHEM 16105 isolate infected OF1 mouse blastoschizomycosis model assessed as liver microbial count per gram of tissue at 80 mg/kg/day, po for 6 days administered 1 hr before microbial challenge
Magnusiomyces capitatus [16] = assay: Antimicrobial activity against Blastoschizomyces capitatus IHEM 5666 isolate infected OF1 mouse blastoschizomycosis model assessed as mean survival time at 80 mg/kg/day, po for 6 days administered 1 hr before microbial challenge
Magnusiomyces capitatus [17] = assay: Antimicrobial activity against Blastoschizomyces capitatus IHEM 16105 isolate infected OF1 mouse blastoschizomycosis model assessed as mean survival time at 80 mg/kg/day, po for 6 days administered 1 hr before microbial challenge
Magnusiomyces capitatus [18] = assay: Antimicrobial activity against Blastoschizomyces capitatus IHEM 5666 isolate infected OF1 mouse blastoschizomycosis model assessed as kidney microbial count at 60 mg/kg/day, po for 6 days administered 1 hr before microbial challenge
Magnusiomyces capitatus [19] = assay: Antimicrobial activity against Blastoschizomyces capitatus IHEM 5666 isolate infected OF1 mouse blastoschizomycosis model assessed as mean survival time at 60 mg/kg/day, po for 6 days administered 1 hr before microbial challenge
Magnusiomyces capitatus [20] = assay: Antimicrobial activity against Blastoschizomyces capitatus IHEM 16105 isolate infected OF1 mouse blastoschizomycosis model assessed as mean survival time at 60 mg/kg/day, po for 6 days administered 1 hr before microbial challenge
Magnusiomyces capitatus [21] = assay: Antimicrobial activity against Blastoschizomyces capitatus IHEM 16105 isolate by microdilution method
Magnusiomyces capitatus [22] = assay: Antimicrobial activity against Blastoschizomyces capitatus IHEM 16105 isolate infected OF1 mouse blastoschizomycosis model assessed as spleen microbial count per gram of tissue at 60 mg/kg/day, po for 6 days administered 1 hr before microbial challenge
Magnusiomyces capitatus [23] = assay: Antimicrobial activity against Blastoschizomyces capitatus IHEM 5666 isolate infected OF1 mouse blastoschizomycosis model assessed as liver microbial count at 60 mg/kg/day, po for 6 days administered 1 hr before microbial challenge
Magnusiomyces capitatus [24] = assay: Antimicrobial activity against Blastoschizomyces capitatus IHEM 5666 isolate infected OF1 mouse blastoschizomycosis model assessed as spleen microbial count at 60 mg/kg/day, po for 6 days administered 1 hr before microbial challenge
Magnusiomyces capitatus [25] = assay: Antimicrobial activity against Blastoschizomyces capitatus IHEM 16105 isolate infected OF1 mouse blastoschizomycosis model assessed as liver microbial count per gram of tissue at 60 mg/kg/day, po for 6 days administered 1 hr before microbial challenge
Magnusiomyces capitatus [26] = assay: Antimicrobial activity against Blastoschizomyces capitatus IHEM 16105 isolate infected OF1 mouse blastoschizomycosis model assessed as kidney microbial count per gram of tissue at 60 mg/kg/day, po for 6 days administered 1 hr before microbial challenge
Magnusiomyces capitatus [27] = assay: Antimicrobial activity against Blastoschizomyces capitatus IHEM 16105 isolate infected OF1 mouse blastoschizomycosis model assessed as kidney microbial count per gram of tissue at 10 mg/kg/day, sc for 6 days administered 1 hr before microbial challenge; conditions: route subcutaneous
Magnusiomyces capitatus [28] = assay: Antimicrobial activity against Blastoschizomyces capitatus IHEM 5666 isolate infected OF1 mouse blastoschizomycosis model assessed as spleen microbial count at 10 mg/kg/day, sc for 6 days administered 1 hr before microbial challenge; conditions: route subcutaneous
Magnusiomyces capitatus [29] = assay: Antimicrobial activity against Blastoschizomyces capitatus IHEM 16105 isolate infected OF1 mouse blastoschizomycosis model assessed as liver microbial count per gram of tissue at 10 mg/kg/day, sc for 6 days administered 1 hr before microbial challenge; conditions: route subcutaneous
Magnusiomyces capitatus [30] = assay: Antimicrobial activity against Blastoschizomyces capitatus IHEM 5666 isolate infected OF1 mouse blastoschizomycosis model assessed as kidney microbial count at 10 mg/kg/day, sc for 6 days administered 1 hr before microbial challenge; conditions: route subcutaneous
Magnusiomyces capitatus [31] = assay: Antimicrobial activity against Blastoschizomyces capitatus IHEM 5666 isolate infected OF1 mouse blastoschizomycosis model assessed as mean survival time at 10 mg/kg/day, sc for 6 days administered 1 hr before microbial challenge; conditions: route subcutaneous
Magnusiomyces capitatus [32] = assay: Antimicrobial activity against Blastoschizomyces capitatus IHEM 16105 isolate infected OF1 mouse blastoschizomycosis model assessed as mean survival time at 10 mg/kg/day, sc for 6 days administered 1 hr before microbial challenge; conditions: route subcutaneous
Magnusiomyces capitatus [33] = assay: Antimicrobial activity against Blastoschizomyces capitatus IHEM 16105 isolate infected OF1 mouse blastoschizomycosis model assessed as spleen microbial count per gram of tissue at 10 mg/kg/day, sc for 6 days administered 1 hr before microbial challenge; conditions: route subcutaneous
Magnusiomyces capitatus [34] = assay: Antimicrobial activity against Blastoschizomyces capitatus IHEM 5666 isolate infected OF1 mouse blastoschizomycosis model assessed as liver microbial count at 10 mg/kg/day, sc for 6 days administered 1 hr before microbial challenge; conditions: route subcutaneous
Magnusiomyces capitatus [35] = assay: Antimicrobial activity against Blastoschizomyces capitatus IHEM 5666 isolate infected OF1 mouse blastoschizomycosis model assessed as kidney microbial count at 40 mg/kg/day, po for 6 days administered 1 hr before microbial challenge
Magnusiomyces capitatus [36] = assay: Antimicrobial activity against Blastoschizomyces capitatus IHEM 5666 isolate infected OF1 mouse blastoschizomycosis model assessed as liver microbial count at 40 mg/kg/day, po for 6 days administered 1 hr before microbial challenge
Magnusiomyces capitatus [37] = assay: Antimicrobial activity against Blastoschizomyces capitatus IHEM 16105 isolate infected OF1 mouse blastoschizomycosis model assessed as kidney microbial count per gram of tissue at 40 mg/kg/day, po for 6 days administered 1 hr before microbial challenge
Magnusiomyces capitatus [38] = assay: Antimicrobial activity against Blastoschizomyces capitatus IHEM 5666 isolate infected OF1 mouse blastoschizomycosis model assessed as mean survival time at 40 mg/kg/day, po for 6 days administered 1 hr before microbial challenge
Magnusiomyces capitatus [39] = assay: Antimicrobial activity against Blastoschizomyces capitatus IHEM 5666 isolate infected OF1 mouse blastoschizomycosis model assessed as spleen microbial count at 40 mg/kg/day, po for 6 days administered 1 hr before microbial challenge
Magnusiomyces capitatus [40] = assay: Antimicrobial activity against Blastoschizomyces capitatus IHEM 16105 isolate infected OF1 mouse blastoschizomycosis model assessed as spleen microbial count per gram of tissue at 40 mg/kg/day, po for 6 days administered 1 hr before microbial challenge
Magnusiomyces capitatus [41] = assay: Antimicrobial activity against Blastoschizomyces capitatus IHEM 16105 isolate infected OF1 mouse blastoschizomycosis model assessed as liver microbial count per gram of tissue at 40 mg/kg/day, po for 6 days administered 1 hr before microbial challenge
Magnusiomyces capitatus [42] = assay: Antimicrobial activity against Blastoschizomyces capitatus IHEM 16105 isolate infected OF1 mouse blastoschizomycosis model assessed as mean survival time at 40 mg/kg/day, po for 6 days administered 1 hr before microbial challenge

C[C@@H]1[C@H](O)[C@@H](C)/C=C/C=C/C=C/C=C/C=C/C=C/C=C/[C@H](O[C@@H]2O[C@H](C)[C@@H](O)[C@H](N)[C@@H]2O)C[C@@H]2O[C@](O)(C[C@@H](O)C[C@@H](O)[C@H](O)CC[C@@H](O)C[C@@H](O)CC(=O)O[C@H]1C)C[C@H](O)[C@H]2C(=O)O [AMPHOTERICIN B]
MST (Magnusiomyces capitatus [1]): 12.2 days
log10cfu (Magnusiomyces capitatus [2]): 6.02
log10cfu (Magnusiomyces capitatus [3]): 5.17
log10cfu (Magnusiomyces capitatus [4]): 7
log10cfu (Magnusiomyces capitatus [5]): 4.47
MIC (Magnusiomyces capitatus [6]): 1 µg/mL (≈ 1.08 µM)
MST (Magnusiomyces capitatus [7]): 12.3 days
log10cfu (Magnusiomyces capitatus [8]): 7.39
log10cfu (Magnusiomyces capitatus [9]): 4.87

OC(Cn1cncn1)(Cn1cncn1)c1ccc(F)cc1F [FLUCONAZOLE]
log10cfu (Magnusiomyces capitatus [10]): 3.72
log10cfu (Magnusiomyces capitatus [11]): 2.05
log10cfu (Magnusiomyces capitatus [12]): 1.59
MIC (Magnusiomyces capitatus [6]): 16 µg/mL (≈ 52.2 µM)
log10cfu (Magnusiomyces capitatus [13]): 4.31
log10cfu (Magnusiomyces capitatus [14]): 2.49
log10cfu (Magnusiomyces capitatus [15]): 1.37
MST (Magnusiomyces capitatus [16]): 30 days
MST (Magnusiomyces capitatus [17]): 25.7 days

Nc1nc(=O)[nH]cc1F [FLUCYTOSINE]
log10cfu (Magnusiomyces capitatus [18]): 7.13
MST (Magnusiomyces capitatus [19]): 7.6 days
MST (Magnusiomyces capitatus [20]): 17.7 days
MIC (Magnusiomyces capitatus [6]): 64 µg/mL (≈ 496 µM)
MIC (Magnusiomyces capitatus [21]): 0.25 µg/mL (≈ 1.94 µM)
log10cfu (Magnusiomyces capitatus [22]): 5.45
log10cfu (Magnusiomyces capitatus [23]): 5.69
log10cfu (Magnusiomyces capitatus [24]): 6.76
log10cfu (Magnusiomyces capitatus [25]): 4.28
log10cfu (Magnusiomyces capitatus [26]): 7.29

CCCCCOc1ccc(-c2cc(-c3ccc(C(=O)N[C@H]4C[C@@H](O)[C@@H](O)NC(=O)[C@@H]5[C@@H](O)[C@@H](C)CN5C(=O)[C@H]([C@H](O)CC(N)=O)NC(=O)[C@H]([C@H](O)[C@@H](O)c5ccc(O)c(OS(=O)(=O)O)c5)NC(=O)[C@@H]5C[C@@H](O)CN5C(=O)[C@H]([C@@H](C)O)NC4=O)cc3)no2)cc1 [MICAFUNGIN] (X1-[Orn(4R-OH,5R-OH)]T[Hyp][hTyr(3S-OH,4S-OH,3'-OSO3H)][Gln(3R-OH)][Pro(3S-OH,4S-Me)]; lactam 1-C)
log10cfu (Magnusiomyces capitatus [27]): 7.5
log10cfu (Magnusiomyces capitatus [28]): 7.03
log10cfu (Magnusiomyces capitatus [29]): 5.26
log10cfu (Magnusiomyces capitatus [30]): 7.52
MST (Magnusiomyces capitatus [31]): 6.6 days
MIC (Magnusiomyces capitatus [6]): 64 µg/mL (≈ 50.4 µM)
MIC (Magnusiomyces capitatus [21]): 64 µg/mL (≈ 50.4 µM)
MST (Magnusiomyces capitatus [32]): 7.59 days
log10cfu (Magnusiomyces capitatus [33]): 7.69
log10cfu (Magnusiomyces capitatus [34]): 5.32

C[C@@H](c1ncncc1F)[C@](O)(Cn1cncn1)c1ccc(F)cc1F [VORICONAZOLE]
log10cfu (Magnusiomyces capitatus [35]): 6.78
log10cfu (Magnusiomyces capitatus [36]): 5.63
log10cfu (Magnusiomyces capitatus [37]): 6.98
MST (Magnusiomyces capitatus [38]): 17.1 days
MIC (Magnusiomyces capitatus [6]): 0.25 µg/mL (≈ 0.716 µM)
log10cfu (Magnusiomyces capitatus [39]): 4.75
MIC (Magnusiomyces capitatus [21]): 1 µg/mL (≈ 2.86 µM)
log10cfu (Magnusiomyces capitatus [40]): 5.56
log10cfu (Magnusiomyces capitatus [41]): 4.33
MST (Magnusiomyces capitatus [42]): 15.78 days
